In patent US20230058189A1, “QUINOLIN-4-ONE AND 4(1H)-CINNOLINONE COMPOUNDS AND METHODS OF USING SAME” (Frequency Therapeutics, Inc., priority 2019, published 2023):

Experiments:
Type in all cases: biochemical
[1] = biological target: T1, LSD2 (Homo sapiens, UniProt Q8NB78); assay: LSD2 A-screen (AlphaScreen) demethylase enzymatic assay; details: approximate values; for inhibition at 50 µM: 50 μM compound, read-out: Potency LSD-2 % Inhibition at 50 μM; for IC50: read-out: Potency LSD-2 IC50
T1 sequence (Q8NB78 1-822): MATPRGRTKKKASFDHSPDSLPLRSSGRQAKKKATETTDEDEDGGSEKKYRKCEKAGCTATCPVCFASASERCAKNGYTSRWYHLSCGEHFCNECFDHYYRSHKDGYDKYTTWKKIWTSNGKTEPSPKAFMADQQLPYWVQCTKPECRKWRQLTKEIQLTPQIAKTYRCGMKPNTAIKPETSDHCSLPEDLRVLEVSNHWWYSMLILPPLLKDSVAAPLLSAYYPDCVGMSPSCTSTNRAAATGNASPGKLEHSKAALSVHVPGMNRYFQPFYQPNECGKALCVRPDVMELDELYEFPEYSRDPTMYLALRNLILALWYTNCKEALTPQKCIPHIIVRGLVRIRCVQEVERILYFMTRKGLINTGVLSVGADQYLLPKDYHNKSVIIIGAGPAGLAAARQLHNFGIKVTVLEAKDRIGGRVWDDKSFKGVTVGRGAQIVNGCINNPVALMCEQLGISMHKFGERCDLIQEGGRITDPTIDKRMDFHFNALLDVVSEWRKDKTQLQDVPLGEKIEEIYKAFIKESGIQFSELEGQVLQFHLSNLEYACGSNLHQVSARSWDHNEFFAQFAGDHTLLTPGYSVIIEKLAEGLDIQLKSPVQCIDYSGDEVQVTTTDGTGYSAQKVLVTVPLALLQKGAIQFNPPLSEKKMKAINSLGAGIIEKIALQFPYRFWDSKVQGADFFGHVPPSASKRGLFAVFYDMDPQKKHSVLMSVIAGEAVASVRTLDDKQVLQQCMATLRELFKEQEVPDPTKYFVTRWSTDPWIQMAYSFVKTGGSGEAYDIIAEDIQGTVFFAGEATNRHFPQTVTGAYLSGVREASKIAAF
Procedure: (§1) Enzymatic activities of compounds of the present disclosure can be tested with recombinant human LSD using an in vitro enzymatic assay to determine the ability of the compounds of the present disclosure to inhibit LSD-1 and LSD2. Examples of the assay are provided below.
(§2) All of the enzymatic reactions were conducted in duplicate at room temperature for 60 minutes in a 10 μL mixture containing assay buffer, histone H3 peptide substrate, demthylase enzyme, and the test compound. These 10 μL reactions were carried out in wells of a 384-well Optiplate (PerkinElmer). The dilution of the compounds was first performed in 100% DMSO with the highest concentration at 5 mM Each intermediate compound dilution (in 100% DMSO) was then directly diluted 30× fold into assay buffer for 3.3× concentration (DMSO). […] From this intermediate step, 3 μL of compound was added to 4 μL of demethylase enzyme dilution was incubated for 30 minutes at room temperature. After this incubation, 3 μL of peptide substrate was added. The final DMSO concentration was 1%. After enzymatic reactions, 5 μL of anti-Mouse or anti-Rabbit Acceptor beads (PerkinElmer, diluted 1:500 with 1× detection buffer) and […] (BPS, diluted 1:800 with 1× detection buffer) were added to the reaction mix. After brief shaking, the plate was incubated for 30 minutes. Finally, 10 μL of AlphaScreen™ Streptavidin-conjugated donor beads (Perkin, diluted 1:125 with 1× detection buffer) were added. After 30 minutes, the samples were measured in an AlphaScreen microplate reader (EnSpire Alpha 2390 Multilabel Reader, Perkin Elmer).
(§3) Enzyme activity assays were performed in duplicates at each concentration. The A-screen intensity data were analyzed and compared. In the absence of the compound, the intensity in each data set was defined as 100% (Ce) activity. In the absence of enzyme, the intensity in each data set was defined as 0% (C0) activity. The percent activity in the presence of each compound was calculated according to the following equation: % activity=(C−C0)/(Ce−C0), where C=the intensity in the presence of the compound.
(§4) The value of percent activity versus a series of compound concentrations was then plotted using non-linear regression analysis of Sigmoidal dose-response curve generated with the equation Y=B+(T−B)/1+10((LogEC50−X)×Hill Slope), where Y=percent activity, B=minimum percent activity, T=maximum percent activity, X=logarithm of compound and Hill Slope=slope factor or Hill coefficient. The IC50 value was determined by the concentration causing a half-maximal percent activity.

[2] = biological target: LSD-1 (Homo sapiens, UniProt O60341); assay: LSD-1 A-screen (AlphaScreen) demethylase enzymatic assay; details: approximate values; for inhibition at 50 µM: read-out: Potency LSD-1 % Inhibition at 50 μM; for IC50: read-out: Potency LSD-1 IC50
Procedure: as §1, §2, §3, §4

[3] = biological target: GSK3α (Homo sapiens, UniProt P49840); assay: GSK3α in vitro enzymatic assay (Kinase-Glo Max luminescence); details: recombinant human GSK3, 10 μM ATP; approximate values; read-out: Potency GSK3alpha
GSK3α, sequence (P49840 whole entry): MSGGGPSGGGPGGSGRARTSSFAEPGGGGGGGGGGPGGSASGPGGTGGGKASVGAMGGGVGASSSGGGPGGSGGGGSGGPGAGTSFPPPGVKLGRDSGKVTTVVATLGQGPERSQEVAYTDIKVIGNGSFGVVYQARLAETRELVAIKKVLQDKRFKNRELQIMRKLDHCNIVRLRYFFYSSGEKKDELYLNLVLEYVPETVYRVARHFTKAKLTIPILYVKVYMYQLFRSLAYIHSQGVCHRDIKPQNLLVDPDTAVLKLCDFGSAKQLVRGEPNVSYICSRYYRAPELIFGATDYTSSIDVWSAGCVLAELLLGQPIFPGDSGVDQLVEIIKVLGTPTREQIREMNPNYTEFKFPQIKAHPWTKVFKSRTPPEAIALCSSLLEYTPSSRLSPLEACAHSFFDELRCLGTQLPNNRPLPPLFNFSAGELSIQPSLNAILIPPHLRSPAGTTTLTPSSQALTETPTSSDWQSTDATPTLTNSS
Procedure: (§5) Enzymatic activities of compounds of the present disclosure can be tested using recombinant human GSK3 in an in vitro enzymatic assay to determine the ability of the compounds of the present disclosure to inhibit GSK3α and GSK3β.
(§6) The assay was performed using Kinase-Glo® Max luminescence kinase assay kit (Promega). The assay measures kinase activity by quantitating the amount of ATP remaining in solution following a kinase reaction. The luminescent signal from the assay is correlated with the amount of ATP present and is inversely correlated with the amount of kinase activity.
(§7) To perform the assay, compounds were diluted in 10% DMSO and 5 μl of the dilution was added to a 50 μl reaction so that the final concentration of DMSO was 1% in all of reactions. The enzymatic reactions were conducted at 30° C. for 40 minutes. The 50 μl reaction mixture contained 40 mM Tris, pH 7.4, 10 mM MgCl2, 0.1 mg/ml BSA, 2 mM DTT, 0.1 mg/ml GSK tide substrate, 10 uM ATP and GSK3. After the enzymatic reaction, 50 μl of Kinase-Glo Max Luminescence kinase assay solution (Promega) was added to each reaction and plates were incubated for 15 minutes at room temperature. Luminescence signal was measured using a BioTek Synergy 2 microplate reader.
(§8) Kinase activity assays were performed in duplicate at each concentration. The luminescence data were analyzed using the computer software, GraphPad Prism. The difference between luminescence intensities in the absence of Kinase (Lut) and in the presence of Kinase (Luc) was defined as 100% activity (Lut-Luc). Using luminescence signal (Lu) in the presence of the compound, percent activity was calculated as: % activity={(Lut-Lu)/(Lut-Luc)}×100%, where Lu=the luminescence intensity in the presence of the compound (all percent activities below zero were shown zero in the table).
as §4, with “The values” for “The value”, “concentrations were” for “concentrations was”, “The ICs,” for “The IC50”

[4] = biological target: GSK3β (Homo sapiens, UniProt P49841); assay: GSK3β in vitro enzymatic assay (Kinase-Glo Max luminescence); details: recombinant human GSK3, 10 μM ATP; approximate values; read-out: Potency GSK3beta
GSK3β, sequence (P49841 whole entry): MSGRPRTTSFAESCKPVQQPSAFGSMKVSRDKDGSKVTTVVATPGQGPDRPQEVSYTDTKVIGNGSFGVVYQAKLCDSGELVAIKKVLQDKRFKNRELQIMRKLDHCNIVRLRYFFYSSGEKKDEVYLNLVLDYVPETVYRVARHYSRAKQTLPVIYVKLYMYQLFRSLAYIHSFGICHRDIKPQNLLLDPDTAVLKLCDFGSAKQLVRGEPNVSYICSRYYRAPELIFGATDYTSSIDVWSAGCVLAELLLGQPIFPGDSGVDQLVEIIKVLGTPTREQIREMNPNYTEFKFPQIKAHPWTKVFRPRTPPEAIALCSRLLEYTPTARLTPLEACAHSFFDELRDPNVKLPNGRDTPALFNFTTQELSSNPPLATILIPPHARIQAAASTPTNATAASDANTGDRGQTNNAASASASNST
Procedure: as §5, §6, §7, §8
as §4, with “The values” for “The value”, “concentrations were” for “concentrations was”, “The ICs,” for “The IC50”

## CCn1cc(C(=O)O)c(=O)c2c(N)c(F)c(NC3Cc4ccccc4C3)cc21 [Compound I-11]
[1]
  inhibition at 50 µM: 13%
[2]; 50 μM compound
  inhibition at 50 µM: 27%
[3]
  IC50: 846 nM
[4]
  IC50: 990 nM

## CCn1cc(-c2nnn[nH]2)c(=O)c2c(N)c(F)c(NCCc3ccccc3)cc21 [Compound I-68]
[1]
  inhibition at 50 µM: 96%
[2]; 50 μM compound
  inhibition at 50 µM: 0%
[3]
  IC50: 581 nM
[4]
  IC50: 711 nM

## CCn1cc(C(=O)O)c(=O)c2c(N)c(F)c(Nc3ccccc3)cc21 [Compound I-16]
[1]
  inhibition at 50 µM: 5%
[2]; 50 μM compound
  inhibition at 50 µM: 32%
[3]
  IC50: 107 nM
[4]
  IC50: 68 nM

## CCn1cc(C(=O)O)c(=O)c2c(N)c(F)c(N[C@H]3C[C@@H](c4ccccc4)C3)cc21 [Compound I-61]
[1]
  inhibition at 50 µM: 15%
[2]; 50 μM compound
  inhibition at 50 µM: 26%
[3]
  IC50: 72 nM
[4]
  IC50: 268 nM

## CCn1cc(C#N)c(=O)c2c(N)c(F)c(N[C@@H]3C[C@H]3c3ccccc3)cc21 (relative stereo) [Compound I-38]
[1]
  inhibition at 50 µM: 0%
[2]; 50 μM compound
  inhibition at 50 µM: 15%
[3]
  IC50: 6.3 nM
[4]
  IC50: 2.5 nM

## CCn1cc(C(=O)O)c(=O)c2c(N)c(F)c(NCc3ccccc3)cc21 [Compound I-17]
[1]
  inhibition at 50 µM: 19%
[2]; 50 μM compound
  inhibition at 50 µM: 2%
[3]
  IC50: 659 nM
[4]
  IC50: 2030 nM

## CCn1cc(C(=O)O)c(=O)c2c(N)c(F)c(N(C)CCN[C@H]3C[C@@H]3c3ccccc3)cc21 (relative stereo) [Compound I-50]
[1]
  inhibition at 50 µM: 50%
[2]
  IC50: 5500 nM
[3]
  IC50: > 10000 nM
[4]
  IC50: > 10000 nM

## CCn1cc(C(=O)O)c(=O)c2c(N)c(F)c(NC3CCCCC3)cc21 [Compound I-7]
[1]
  inhibition at 50 µM: 5%
[2]; 50 μM compound
  inhibition at 50 µM: 10%
[3]
  IC50: 38 nM
[4]
  IC50: 18 nM

## CCn1cc(C(=O)O)c(=O)c2c(N)c(F)c(N[C@@H]3C[C@H]3c3ccccc3)cc21 (single isomer, unassigned) [Compound I-20]
[1]
  inhibition at 50 µM: 10%
[2]; 50 μM compound, 50 µM
  Potency LSD-1 % Inhibition at 50 μM: <10% @ 50 μM
[3]
  IC50: 102 nM
[4]
  IC50: 338 nM

## CCC(CC)n1cc(C(=O)O)c(=O)c2c(C)c(F)c(NC3CCCCC3)cc21 [Compound I-3]
[1]
  inhibition at 50 µM: 0%
[2]; 50 μM compound
  inhibition at 50 µM: 13%
[3]
  IC50: 250 nM
[4]
  IC50: 366 nM

## CCn1cc(C(=O)O)c(=O)c2c(N)c(F)c(NCCN[C@@H]3C[C@@]34CCc3ccccc34)cc21 (relative stereo) [Compound I-82]
[1]
  inhibition at 50 µM: 76%
[2]
  IC50: 190 nM
[3]
  IC50: 1550 nM
[4]
  IC50: 3380 nM

## CCn1cc(C(=O)O)c(=O)c2c(N)c(F)c(N[C@@H]3CC[C@@H]3c3ccccc3)cc21 (relative stereo) [Compound I-14]
[1]
  inhibition at 50 µM: 3%
[2]; 50 μM compound
  inhibition at 50 µM: 5%
[3]
  IC50: > 10000 nM
[4]
  IC50: > 10000 nM

## CCn1cc(C(=O)O)c(=O)c2c(N)c(F)c(NCCCc3ccccc3)cc21 [Compound I-19]
[1]
  inhibition at 50 µM: 17%
[2]; 50 μM compound
  inhibition at 50 µM: 27%
[3]
  IC50: 19 nM
[4]
  IC50: 29 nM

## CCn1cc(C(=O)O)c(=O)c2c(N)c(F)c(N[C@@H]3C[C@H]3c3ccccc3)cc21 [Compound I-21]
[1]
  inhibition at 50 µM: 0%
[2]; 50 μM compound
  inhibition at 50 µM: 19%
[3]
  IC50: 392 nM
[4]
  IC50: 334 nM

## Cn1cc(C(=O)O)c(=O)c2c(N)c(F)c(NCCN[C@@H]3C[C@H]3c3ccccc3)cc21 (relative stereo) [Compound I-86]
[1]
  inhibition at 50 µM: 6%
[2]
  IC50: 1900 nM
[3]
  IC50: 919 nM
[4]
  IC50: 2170 nM

## CCn1cc(C(=O)O)c(=O)c2c(N)c(F)c(Nc3ccc([C@@H]4C[C@H]4N)cc3)cc21 (relative stereo) [Compound I-62]
[1]
  IC50: 49 µM
[2]
  IC50: > 100000 nM
[3]
  IC50: 449 nM
[4]
  IC50: 504 nM

## CCn1cc(C(=O)O)c(=O)c2c(N)c(F)c(NC3CCCC3)cc21 [Compound I-9]
[1]
  inhibition at 50 µM: 3%
[2]; 50 μM compound
  inhibition at 50 µM: 6%
[3]
  IC50: 69 nM
[4]
  IC50: 53 nM

## CCn1cc(C(=O)O)c(=O)c2c(N)cc(NCCCc3ccccc3)cc21 [Compound I-57]
[1]
  inhibition at 50 µM: 42%
[2]; 50 μM compound
  inhibition at 50 µM: 83%
[3]
  IC50: 762 nM
[4]
  IC50: 1760 nM

## CCn1cc(C(=O)O)c(=O)c2c(N)c(F)c(NC3CCc4ccccc43)cc21 (centres unmarked) [Compound I-10]
[1]
  inhibition at 50 µM: 6%
[2]; 50 μM compound
  inhibition at 50 µM: 22%
[3]
  IC50: 3800 nM
[4]
  IC50: 1900 nM

## CCn1cc(C(N)=O)c(=O)c2c(N)c(F)c(NCCc3ccccc3)cc21 [Compound I-66]
[1]
  inhibition at 50 µM: 4%
[2]; 50 μM compound
  inhibition at 50 µM: 6%
[3]
  IC50: 2.6 nM
[4]
  IC50: 2.5 nM

## CCn1cc(C#N)c(=O)c2c(N)c(F)c(NCCN[C@@H]3C[C@H]3c3ccccc3)cc21 (relative stereo) [Compound I-84]
[1]
  IC50: 41 µM
[2]
  IC50: 1400 nM
[3]
  IC50: 2.7 nM
[4]
  IC50: 2.2 nM

## Nc1c(F)c(NCCN[C@@H]2C[C@H]2c2ccccc2)cc2c1c(=O)c(C(=O)O)cn2C1CC1 (relative stereo) [Compound I-89]
[1]
  inhibition at 50 µM: 5%
[2]
  IC50: 7400 nM
[3]
  IC50: 393 nM
[4]
  IC50: 308 nM

## CCn1cc(C(=O)O)c(=O)c2c(N)c(F)c(N[C@H]3C[C@H](c4ccccc4)C3)cc21 [Compound I-60]
[1]
  inhibition at 50 µM: 4%
[2]; 50 μM compound
  inhibition at 50 µM: 15%
[3]
  IC50: 32 nM
[4]
  IC50: 31 nM
